The nature of series [1]: Body weights of rats before and after the treatments. The format is in vivo, SD rats. Conditions: OVX rats, after treatment (11 weeks). The procedure:
OVX group and the intervention groups: The rats were anesthetized by intraperitoneal injection of 1% pentobarbital sodium at 5 ml/kg. After the onset of anesthesia, the rats were positioned face-down and dehaired at the third lumbar vertebra below the costal arch. The skin was sanitized by benzalkonium bromide and incised by about 1 cm. The subcutaneous tissue and the fascia were incised, and the muscle was bluntly separated. The peritoneum was carefully cut open. White fat was lifted carefully by using tissue forceps inserted to the abdominal cavity through the incision. The fat was gently turned over to expose the quincuncial ovary, which was then ligated by sterile 1 silk thread. The ovary was separated by cutting the oviduct by ophthalmic scissors. After hemostasis by compression, the fat was returned into the abdominal cavity. Subsequently, an incision was made on the opposite side and the same procedures were carried out to excise the ovary on the opposite side. The peritoneum, the fascia, the subcutaneous tissue, and the skin were sutured one by one. The incisions were sanitized. The rats were raised in the clean SPF animal chamber in the Animal Experimental Center of the Shanghai Institutes for Biological Sciences, CAS, with temperature maintained at 24° C., humidity maintained at 40˜60%, and a diurnal rhythm of 12 h/12 h. The rats were supplied with normal food and purified water ad libitum. The vehicle was 1% sodium carboxymethylcellulose (CMC-Na). The sham group and OVX group were administered the vehicle by gavage. Intervention groups were administered the following formulations of active agents dissolved in the vehicle: The rats were sacrificed by cervical dislocation after 11 weeks. Uteri were removed, weighted, and fixed in 4% paraformaldehyde (PFA). The whole right knee joints were removed and fixed in 4% PFA. The rats were weighted, and then sacrificed. The uteri were removed from the rats and determined for wet weights.

The test system of the next series is interleukin-5. The following applies: cited from earlier work.

For the molecule `O=c1c(-c2ccc(O[C@@H]3O[C@H](CO)[C@@H](O)[C@H](O)[C@H]3O)cc2)coc2cc(O)cc(O)c12` [HDA, 3-[4-(β-D-glucopyranosyl)-benzyl]5,7-dihydro-4H-1-benzopyran-4-one (4′,5,7-trihydroxylisoflavone-4′-D-glucoside)], the Final body weight in series [1] (sophoricoside 10 mg/kg/day) amounted to 370.9 ± 5.7 g; in series [1] (sophoricoside 20 mg/kg/day), 376.2 ± 6.5 g; in series [1] (sophoricoside 40 mg/kg/day), 372.5 ± 6.8 g; in series [1] (sophoricoside 80 mg/kg/day), 362.8 ± 3.4 g. Also, the “inhibition of interleukin-5” value with interleukin-5 is given as “inhibitor of interleukin-5”.

These data come from patent publication US20110130355A1, “USE OF SOPHORICOSIDE IN THE MANUFACTURE OF MEDICAMENTS” (priority 2008, published 2011).
